pIC50: −log10 of the molar value.
What was measured:
[1] = system: Huh-7; experiment: Antitumor activity against human HuH7 cells xenografted in nude BALB/c mouse assessed as inhibition of tumor growth at 10 mg/kg bid for 14 days and measured twice per week relative to untreated control; format: functional; settings: Huh-7, 336 h, read-out: TGI
[2] = system: Huh-7; experiment: Antitumor activity against human HuH7 cells xenografted in nude BALB/c mouse assessed as inhibition of tumor growth at 100 mg/kg bid for 14 days and measured twice per week relative to untreated control; format: functional; settings: Huh-7, 336 h, read-out: TGI
[3] = target: Macrophage-stimulating protein receptor (Homo sapiens, UniProt Q04912); experiment: Inhibition of RON (unknown origin)
Sequence of Macrophage-stimulating protein receptor (Q04912 25-304 limits assumed): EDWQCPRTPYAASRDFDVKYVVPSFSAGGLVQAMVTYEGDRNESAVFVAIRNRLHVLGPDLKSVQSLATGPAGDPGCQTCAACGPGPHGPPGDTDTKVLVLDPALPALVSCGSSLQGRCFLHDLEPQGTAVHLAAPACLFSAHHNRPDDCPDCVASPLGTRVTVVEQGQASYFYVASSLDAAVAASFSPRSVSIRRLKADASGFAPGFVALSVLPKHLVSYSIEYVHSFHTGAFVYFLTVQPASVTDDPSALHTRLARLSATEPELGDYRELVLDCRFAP
Sequence of Macrophage-stimulating protein receptor (Q04912 310-1400 limits assumed): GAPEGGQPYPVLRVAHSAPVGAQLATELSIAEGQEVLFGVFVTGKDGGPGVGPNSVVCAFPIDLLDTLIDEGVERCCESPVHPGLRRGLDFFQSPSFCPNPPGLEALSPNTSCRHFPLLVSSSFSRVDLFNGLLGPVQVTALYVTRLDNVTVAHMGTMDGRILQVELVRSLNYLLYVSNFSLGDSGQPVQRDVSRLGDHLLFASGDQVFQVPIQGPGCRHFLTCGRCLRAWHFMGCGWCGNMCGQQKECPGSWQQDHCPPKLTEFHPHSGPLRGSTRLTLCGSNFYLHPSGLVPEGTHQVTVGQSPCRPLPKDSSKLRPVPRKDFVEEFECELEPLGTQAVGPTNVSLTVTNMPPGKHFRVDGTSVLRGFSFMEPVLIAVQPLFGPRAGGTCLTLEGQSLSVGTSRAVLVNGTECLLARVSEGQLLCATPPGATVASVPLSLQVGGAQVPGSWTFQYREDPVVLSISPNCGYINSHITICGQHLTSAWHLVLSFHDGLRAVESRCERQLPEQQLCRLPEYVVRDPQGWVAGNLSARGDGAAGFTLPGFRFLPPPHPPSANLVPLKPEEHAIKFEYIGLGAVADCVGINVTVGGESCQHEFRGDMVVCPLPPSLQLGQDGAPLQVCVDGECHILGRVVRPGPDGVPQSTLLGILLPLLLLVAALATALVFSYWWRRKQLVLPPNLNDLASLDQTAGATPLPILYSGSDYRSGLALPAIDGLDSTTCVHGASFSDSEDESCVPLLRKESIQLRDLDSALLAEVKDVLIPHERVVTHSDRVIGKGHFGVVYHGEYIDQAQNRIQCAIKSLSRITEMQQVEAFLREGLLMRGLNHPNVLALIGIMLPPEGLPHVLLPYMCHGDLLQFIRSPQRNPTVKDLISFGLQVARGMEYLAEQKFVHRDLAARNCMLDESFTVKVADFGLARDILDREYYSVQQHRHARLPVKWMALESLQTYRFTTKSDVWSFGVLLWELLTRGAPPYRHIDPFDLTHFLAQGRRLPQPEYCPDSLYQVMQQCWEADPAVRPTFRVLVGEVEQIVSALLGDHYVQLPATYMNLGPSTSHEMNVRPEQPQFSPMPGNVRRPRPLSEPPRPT

[4] = target: Mast/stem cell growth factor receptor Kit (Homo sapiens, UniProt P10721); experiment: Inhibition of C-KIT (unknown origin)
[5] = target: Leukocyte tyrosine kinase receptor (Homo sapiens, UniProt P29376); experiment: Inhibition of LTK (unknown origin)
[6] = target: Tyrosine-protein kinase SYK (Homo sapiens, UniProt P43405); experiment: Inhibition of SYK (unknown origin)
[7] = target: Focal adhesion kinase 1 (Homo sapiens, UniProt Q05397); experiment: Inhibition of FAK (unknown origin)
[8] = target: Receptor-type tyrosine-protein kinase FLT3 (Homo sapiens, UniProt P36888); experiment: Inhibition of FLT3 (unknown origin)
Sequence of Receptor-type tyrosine-protein kinase FLT3 (P36888 whole entry): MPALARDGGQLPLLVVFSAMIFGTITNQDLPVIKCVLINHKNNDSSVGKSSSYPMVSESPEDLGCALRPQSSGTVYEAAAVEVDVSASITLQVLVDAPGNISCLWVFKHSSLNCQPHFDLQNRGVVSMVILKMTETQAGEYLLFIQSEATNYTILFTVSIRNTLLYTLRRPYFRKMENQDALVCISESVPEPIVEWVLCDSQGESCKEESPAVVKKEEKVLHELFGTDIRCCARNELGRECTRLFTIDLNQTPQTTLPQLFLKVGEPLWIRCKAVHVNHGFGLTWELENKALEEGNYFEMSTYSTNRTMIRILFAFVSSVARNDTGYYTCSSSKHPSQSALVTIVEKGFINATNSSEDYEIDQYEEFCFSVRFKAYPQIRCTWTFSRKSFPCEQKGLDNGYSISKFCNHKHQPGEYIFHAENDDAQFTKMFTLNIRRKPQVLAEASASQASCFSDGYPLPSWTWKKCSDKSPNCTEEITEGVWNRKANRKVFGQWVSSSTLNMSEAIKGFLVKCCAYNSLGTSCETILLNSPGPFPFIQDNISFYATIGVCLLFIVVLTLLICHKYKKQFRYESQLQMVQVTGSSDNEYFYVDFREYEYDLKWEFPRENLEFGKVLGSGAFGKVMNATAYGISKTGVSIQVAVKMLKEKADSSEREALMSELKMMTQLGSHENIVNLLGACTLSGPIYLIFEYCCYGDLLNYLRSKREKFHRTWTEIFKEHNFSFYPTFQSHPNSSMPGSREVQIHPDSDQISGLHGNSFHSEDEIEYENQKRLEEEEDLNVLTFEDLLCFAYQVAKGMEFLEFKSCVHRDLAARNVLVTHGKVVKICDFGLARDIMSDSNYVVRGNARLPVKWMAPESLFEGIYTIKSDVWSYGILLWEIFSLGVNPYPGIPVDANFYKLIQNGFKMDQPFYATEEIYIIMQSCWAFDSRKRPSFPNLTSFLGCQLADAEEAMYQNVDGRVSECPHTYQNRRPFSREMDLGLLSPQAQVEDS

[9] = system: Huh-7; experiment: Antitumor activity against human HuH7 cells xenografted in nude BALB/c mouse assessed as inhibition of tumor growth at 30 mg/kg bid for 14 days and measured twice per week relative to untreated control; format: functional; settings: Huh-7, 336 h, read-out: TGI
[10] = target: High affinity nerve growth factor receptor (Homo sapiens, UniProt P04629); experiment: Inhibition of TRKA (unknown origin)
[11] = target: Proto-oncogene tyrosine-protein kinase ROS (Homo sapiens, UniProt P08922); experiment: Inhibition of ROS (unknown origin)
[12] = system: Hep 3B2; experiment: Antitumor activity against human Hep3B cells xenografted in nude BALB/c mouse assessed as inhibition of tumor growth at 3 mg/kg bid for 14 days and measured twice per week relative to untreated control; format: functional; settings: 336 h, read-out: TGI
[13] = Toxicity in female BALB/c mouse at 200 to 2000 mg/kg, ig administered as single dose measured after 14 days; format: organism-based; settings: in vivo, po
[14] = system: Huh-7; experiment: cells; settings: Homo sapiens, Huh-7, 72 h
[15] = Toxicity in female BALB/c mouse at 50 to 450 mg/kg/day, ig dosed once daily for 4 weeks followed by rehabilitation for another 28 days; format: organism-based; settings: in vivo, po
[16] = target: Fibroblast growth factor receptor 1 (Homo sapiens, UniProt P11362); experiment: Inhibition of FGFR1 (unknown origin) incubated for 60 mins by caliper microfluidic mobility shift technology based assay
[17] = target: Non-receptor tyrosine-protein kinase TYK2 (Homo sapiens, UniProt P29597); experiment: Inhibition of TYK2 (unknown origin)
[18] = system: Hep 3B2; experiment: Antitumor activity against human Hep3B cells xenografted in nude BALB/c mouse assessed as inhibition of tumor growth at 30 mg/kg bid for 14 days and measured twice per week relative to untreated control; format: functional; settings: 336 h, read-out: TGI
[19] = target: Platelet-derived growth factor receptor alpha (Homo sapiens, UniProt P16234); experiment: Inhibition of PDGFRalpha (unknown origin)
[20] = target: Hepatocyte growth factor receptor (Homo sapiens, UniProt P08581); experiment: Inhibition of MET (unknown origin)
Sequence of Hepatocyte growth factor receptor (P08581 whole entry): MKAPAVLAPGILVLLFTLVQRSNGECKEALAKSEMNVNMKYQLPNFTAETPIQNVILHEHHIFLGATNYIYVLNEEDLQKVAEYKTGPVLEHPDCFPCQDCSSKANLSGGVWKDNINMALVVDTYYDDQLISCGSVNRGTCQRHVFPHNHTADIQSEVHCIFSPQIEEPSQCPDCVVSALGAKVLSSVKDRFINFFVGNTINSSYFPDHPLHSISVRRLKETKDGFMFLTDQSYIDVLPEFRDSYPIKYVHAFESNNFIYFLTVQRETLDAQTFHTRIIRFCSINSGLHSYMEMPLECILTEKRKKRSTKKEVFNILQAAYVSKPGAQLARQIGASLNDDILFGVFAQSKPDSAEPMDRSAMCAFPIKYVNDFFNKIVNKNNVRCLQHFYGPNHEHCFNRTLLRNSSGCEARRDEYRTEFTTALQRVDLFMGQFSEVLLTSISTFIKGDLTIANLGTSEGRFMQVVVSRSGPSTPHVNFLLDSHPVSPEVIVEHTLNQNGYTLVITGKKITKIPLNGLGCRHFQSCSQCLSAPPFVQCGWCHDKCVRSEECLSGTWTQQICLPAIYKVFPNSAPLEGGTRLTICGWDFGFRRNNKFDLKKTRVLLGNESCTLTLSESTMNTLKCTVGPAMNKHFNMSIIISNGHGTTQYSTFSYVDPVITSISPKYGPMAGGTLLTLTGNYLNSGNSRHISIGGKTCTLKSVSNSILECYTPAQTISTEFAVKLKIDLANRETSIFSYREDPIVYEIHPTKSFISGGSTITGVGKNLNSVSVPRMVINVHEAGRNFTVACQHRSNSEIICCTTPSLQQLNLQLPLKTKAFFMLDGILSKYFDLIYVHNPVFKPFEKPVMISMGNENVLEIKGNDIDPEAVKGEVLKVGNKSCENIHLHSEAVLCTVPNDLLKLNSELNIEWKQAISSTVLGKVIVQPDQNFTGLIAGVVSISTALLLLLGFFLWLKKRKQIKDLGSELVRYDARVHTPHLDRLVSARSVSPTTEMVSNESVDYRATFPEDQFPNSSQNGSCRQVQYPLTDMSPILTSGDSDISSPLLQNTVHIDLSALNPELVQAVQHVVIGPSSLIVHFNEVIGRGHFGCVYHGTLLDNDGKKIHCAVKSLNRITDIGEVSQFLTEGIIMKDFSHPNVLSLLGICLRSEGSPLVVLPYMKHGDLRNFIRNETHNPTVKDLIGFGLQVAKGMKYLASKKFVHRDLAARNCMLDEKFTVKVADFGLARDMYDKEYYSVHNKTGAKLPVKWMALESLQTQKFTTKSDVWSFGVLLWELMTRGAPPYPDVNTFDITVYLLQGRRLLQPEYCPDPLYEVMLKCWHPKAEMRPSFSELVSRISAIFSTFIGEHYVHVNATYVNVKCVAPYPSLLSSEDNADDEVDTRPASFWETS

[21] = target: Vascular endothelial growth factor receptor 2 (Homo sapiens, UniProt P35968); experiment: Inhibition of KDR (unknown origin)
[22] = target: ALK tyrosine kinase receptor (Homo sapiens, UniProt Q9UM73); experiment: Inhibition of ALK (unknown origin)
[23] = target: Fibroblast growth factor receptor 4 (Homo sapiens, UniProt P22455); experiment: Inhibition of FGFR4 (unknown origin) incubated for 60 mins by caliper microfluidic mobility shift technology based assay
[24] = Toxicity in female BALB/c mouse assessed as effect on body weight at 50 to 450 mg/kg/day, ig dosed once daily for 4 weeks followed by rehabilitation for another 28 days; format: organism-based; settings: in vivo, po, 672 h
[25] = target: Receptor tyrosine-protein kinase erbB-4 (Homo sapiens, UniProt Q15303); experiment: Inhibition of HER4 (unknown origin)
[26] = system: SK-HEP1; experiment: Antiproliferative activity against human SKHEP1 cells without FGFR4 gene amplification assessed as inhibition of cell proliferation incubated for 72 hrs by CellTiter-Glo method; format: functional, cell-based; settings: SK-HEP1, 72 h
[27] = target: Receptor tyrosine-protein kinase erbB-2 (Homo sapiens, UniProt P04626); experiment: Inhibition of HER2 (unknown origin)
[28] = target: Ephrin type-A receptor 1 (Homo sapiens, UniProt P21709); experiment: Inhibition of EphA1 (unknown origin)
[29] = Toxicity in male BALB/c mouse assessed as induction of animal death at 450 mg/kg/day, ig dosed once daily for 4 weeks followed by rehabilitation for another 28 days; format: organism-based; settings: in vivo, po, 672 h
[30] = AUC in Sprague-Dawley rat at 5 mg/kg, ig measured after 5 mins to 24 hrs by LC-MS analysis; format: ADME, organism-based; set-up: dose 5 mg/kg, time 0.083-24 hr, route […]; settings: in vivo, po
[31] = Toxicity in male BALB/c mouse at 50 to 450 mg/kg/day, ig dosed once daily for 4 weeks followed by rehabilitation for another 28 days; format: organism-based; settings: in vivo, po
[32] = Toxicity in female BALB/c mouse assessed as induction of animal death at 450 mg/kg/day, ig dosed once daily for 4 weeks followed by rehabilitation for another 28 days; format: organism-based; settings: in vivo, po, 672 h
[33] = system: Hep 3B2; experiment: cells; settings: Homo sapiens, Hep3B, 72 h
[34] = target: Tyrosine-protein kinase receptor UFO (Homo sapiens, UniProt P30530); experiment: Inhibition of AXL (unknown origin)
Sequence of Tyrosine-protein kinase receptor UFO (P30530 whole entry): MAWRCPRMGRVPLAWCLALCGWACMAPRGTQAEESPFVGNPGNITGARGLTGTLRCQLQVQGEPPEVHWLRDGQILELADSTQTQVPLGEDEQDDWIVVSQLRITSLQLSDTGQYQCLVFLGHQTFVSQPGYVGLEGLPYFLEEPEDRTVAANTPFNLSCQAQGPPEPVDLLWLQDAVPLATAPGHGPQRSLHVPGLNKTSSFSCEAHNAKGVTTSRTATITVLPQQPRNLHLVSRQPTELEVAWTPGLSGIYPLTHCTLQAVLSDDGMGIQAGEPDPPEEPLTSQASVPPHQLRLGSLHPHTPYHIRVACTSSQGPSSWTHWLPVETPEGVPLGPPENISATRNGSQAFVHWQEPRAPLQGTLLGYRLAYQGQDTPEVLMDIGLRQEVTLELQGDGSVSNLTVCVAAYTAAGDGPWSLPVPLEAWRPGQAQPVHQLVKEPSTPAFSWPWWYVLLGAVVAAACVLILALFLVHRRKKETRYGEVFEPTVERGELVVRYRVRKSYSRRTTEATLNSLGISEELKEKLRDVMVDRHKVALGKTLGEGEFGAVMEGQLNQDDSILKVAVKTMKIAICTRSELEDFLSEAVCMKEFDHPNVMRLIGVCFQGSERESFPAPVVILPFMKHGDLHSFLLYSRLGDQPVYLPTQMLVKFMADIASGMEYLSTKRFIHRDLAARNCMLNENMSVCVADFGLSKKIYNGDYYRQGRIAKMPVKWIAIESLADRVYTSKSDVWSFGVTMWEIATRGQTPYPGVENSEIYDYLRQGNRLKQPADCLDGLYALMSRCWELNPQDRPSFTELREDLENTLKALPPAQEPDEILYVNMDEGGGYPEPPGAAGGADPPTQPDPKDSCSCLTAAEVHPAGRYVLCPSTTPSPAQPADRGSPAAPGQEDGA

[35] = target: Proto-oncogene tyrosine-protein kinase receptor Ret (Homo sapiens, UniProt P07949); experiment: Inhibition of RET (unknown origin)
[36] = target: Angiopoietin-1 receptor (Homo sapiens, UniProt Q02763); experiment: Inhibition of TIE2 (unknown origin)
[37] = system: Hep 3B2; experiment: Antitumor activity against human Hep3B cells xenografted in nude BALB/c mouse assessed as inhibition of tumor growth at 10 mg/kg bid for 14 days and measured twice per week relative to untreated control; format: functional; settings: 336 h, read-out: TGI
[38] = Toxicity in male BALB/c mouse assessed as effect on clinical pathology parameters at 200 to 2000 mg/kg, ig administered as single dose measured after 14 days; format: organism-based; settings: in vivo, po, 336 h
[39] = target: Vascular endothelial growth factor receptor 1 (Homo sapiens, UniProt P17948); experiment: Inhibition of FLT1 (unknown origin)
[40] = target: Fibroblast growth factor receptor 3 (Homo sapiens, UniProt P22607); experiment: Inhibition of FGFR3 (unknown origin)
[41] = target: Vascular endothelial growth factor receptor 3 (Homo sapiens, UniProt P35916); experiment: Inhibition of FLT4 (unknown origin)
[42] = target: Insulin receptor (Homo sapiens, UniProt P06213); experiment: Inhibition of INSR (unknown origin)
[43] = target: Tyrosine-protein kinase ZAP-70 (Homo sapiens, UniProt P43403); experiment: Inhibition of ZAP70 (unknown origin)
[44] = target: MAP kinase-activated protein kinase 2 (Homo sapiens, UniProt P49137); experiment: Inhibition of MAPKAPK2 (unknown origin)
Sequence of MAP kinase-activated protein kinase 2 (P49137 whole entry): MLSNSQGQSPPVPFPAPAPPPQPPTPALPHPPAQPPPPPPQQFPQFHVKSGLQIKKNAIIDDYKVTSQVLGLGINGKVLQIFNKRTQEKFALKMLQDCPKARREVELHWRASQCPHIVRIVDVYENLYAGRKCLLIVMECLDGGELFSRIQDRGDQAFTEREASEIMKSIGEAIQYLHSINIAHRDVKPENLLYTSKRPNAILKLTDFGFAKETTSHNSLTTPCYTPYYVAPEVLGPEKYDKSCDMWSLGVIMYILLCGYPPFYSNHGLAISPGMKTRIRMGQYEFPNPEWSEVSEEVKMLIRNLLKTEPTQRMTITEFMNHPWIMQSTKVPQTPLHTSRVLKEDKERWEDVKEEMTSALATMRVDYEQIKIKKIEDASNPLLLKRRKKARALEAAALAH

COC[C@@H](C)Nc1cc(NC(=O)N2CCCc3cc(CN4CCCCOC4=O)c(C=O)nc32)ncc1C#N
inhibition in vivo at 10 mg/kg [1]: 28.1%
inhibition in vivo at 100 mg/kg [2]: 70.8%
pIC50 [3]: < 5.00
pIC50 [4]: < 5.00
pIC50 [5]: < 5.00
pIC50 [6]: < 5.00
pIC50 [7]: < 5.00
pIC50 [8]: < 5.00
inhibition in vivo at 30 mg/kg [9]: 62.7%
pIC50 [10]: < 5.00
pIC50 [11]: < 5.00
inhibition in vivo at 3 mg/kg [12]: 69.8%
NOAEL at 336 h [13]: 2000 mg/kg/day
pIC50 [14]: 8.60
NOAEL at 672 h [15]: 150 mg/kg
pIC50 [16]: < 5.00
pIC50 [17]: < 5.00
inhibition in vivo at 30 mg/kg [18]: 165%
pIC50 [19]: < 5.00
pIC50 [20]: < 5.00
pIC50 [21]: < 5.00
pIC50 [22]: < 5.00
pIC50 [23]: 8.82
Activity [24]: Non-Toxic
pIC50 [25]: < 5.00
pIC50 [26]: < 5.00
pIC50 [27]: < 5.00
pIC50 [28]: < 5.00
Activity [29]: Non-Toxic
AUC [30]: 9460 ng·h/mL
NOAEL at 672 h [31]: 450 mg/kg
Activity [32]: Toxic
pIC50 [33]: 8.96
pIC50 [34]: < 5.00
pIC50 [35]: < 5.00
pIC50 [36]: < 5.00
inhibition in vivo at 10 mg/kg [37]: 126%
Activity [38]: Non-Toxic
pIC50 [39]: < 5.00
pIC50 [40]: < 5.00
pIC50 [41]: < 5.00
pIC50 [42]: < 5.00
pIC50 [43]: < 5.00
pIC50 [44]: < 5.00

Source: ChEMBL document CHEMBL4339212, “Novel 7-formyl-naphthyridyl-ureas derivatives as potential selective FGFR4 inhibitors: Design, synthesis, and biological activity studies” (Bioorg Med Chem, 2019)
